Legend:
human 5-HT2A = target: T1, human 5-HT2A (Homo sapiens, UniProt P28223); experiment: 5-HT2A activity in FRT cells; assay type: cell-based; conditions: pretreated 10 minutes
T1 construct: expressed in transfected cells; host or cells: FRT cells co-expressing ANO1(abc) and YFP-F46L/H148Q/I152L
Description: (§1) (A) The inhibition of mouse pendrin (mPDS)-mediated Cl^−/I^− exchange activity by F56 was measured in CHO-K1 cells (mean±S.E., n=5). The indicated concentration of F56 was pretreated for 10 minutes. (B) Summary of dose-response for inhibition of the human pendrin (hPDS)-mediated (closed circle, FIG. (a), C) and mPDS-mediated (open circle) Cl^−/I^− exchange activity. (C-F) Representative traces of intracellular pH in CHO-K1 cells expressing SLC26A3, SLC26A6, SLC26A7 and SLC26A9 were shown. The application of Cl^− free solution induced intracellular alkalization by Cl^−/HCO3^− exchange. The indicated concentration of F56 was pretreated for 10 minutes. (G) the effect of F56 (100 μM) on the CFTR chloride channel activity was measured in FRT cells expressing human CFTR. The CFTR current was activated by 20 μM forskolin and was inhibited by 10 μM CFTRinh-172. (H) The effect of F56 (100 μM) on the AN01 chloride channel activity was measured in FRT cells expressing human AN01. Before 10 minutes prior to AN01 activation by 100 μM ATP, F56 was added. (Right) Peak current summary (mean±S.E., n=3). (I) The effect of F56 on the hERG (Kv11.1) potassium channel activity was measured in HEK293T cells expressing human Kv11.1 (mean±S.E., n=4). […] (J) The effect of F56 on the 5-HT2A channel activity was measured in FRT cells expressing human 5-HT2A (mean±S.E., n=4). […]

tracheal smooth muscle = experiment: Tracheal contraction in rat tracheal ring; conditions: 30 μM after carbachol-induced contraction
Description: All experiments were performed using 4-week-old SD male rats. The experimental protocol was approved by the Animal Ethics Committee of Yonsei University. The rats were sacrificed and tracheal strips were separated. After the connective tissue was separated, the organ was cut into 3 mm long rings. The organ was mounted for tension recording under 1 g tension and equilibrated for 1 hour in an organ bath containing 25 mL of oxygenated physiological solution. The solution was gassed successively with 95% 02 and 5% CO2 at 37° C. After 1 hours of stabilization, 0.3 μM carbachol (CCh) was used to induce a sustained contraction reaction in the organ bath. Once the sustained tension was established, F56 (30 μM) and forskolin (10 μM) and IBMX (100 μM) were applied to the bath. The organ contraction was measured using FORT 10G converter (World Precision Instruments, Sarasota, FL, USA) and PowerLab 4/35 (AD Instruments, Castle Hill, Australia). Data were recorded and analyzed using Labchart Pro 7 (AD Instruments).

Duox2 mRNA = Duox2 mRNA expression in LPS-treated hAEC, real-time PCR; assay type: cell-based, human
Description: The total messenger RNA (mRNA) was extracted using TRIzol reagent (Invitrogen, Carlsbad, CA, USA), and was reverse-transcribed using a random hexamer primer, an oligo(dT) primer and SuperScript® III reverse transcriptase (Invitrogen). Quantitative real-time PCR was performed using StepOnePlus Real-Time PCR system (Applied Biosystems, Foster City, CA, USA) and Thunderbird SYBR qPCR mix (Tokyobo, Osaka, Japan). Thermal cycling conditions included the initial stage at 95° C. for 5 minutes, and subsequent 40 cycles at 95° C. for 10 seconds, at 55° C. for 20 seconds and at 72° C. for […].

SLC26A6 = target: T2, SLC26A6 (Homo sapiens, UniProt Q9BXS9); experiment: Cl^−/HCO3^− exchange in CHO-K1 cells expressing SLC26A6; assay type: cell-based; conditions: weakly inhibited
T2 construct: expressed in transfected cells; host or cells: CHO-K1
Description: as §1

T2 sequence (Q9BXS9 whole entry, species assumed): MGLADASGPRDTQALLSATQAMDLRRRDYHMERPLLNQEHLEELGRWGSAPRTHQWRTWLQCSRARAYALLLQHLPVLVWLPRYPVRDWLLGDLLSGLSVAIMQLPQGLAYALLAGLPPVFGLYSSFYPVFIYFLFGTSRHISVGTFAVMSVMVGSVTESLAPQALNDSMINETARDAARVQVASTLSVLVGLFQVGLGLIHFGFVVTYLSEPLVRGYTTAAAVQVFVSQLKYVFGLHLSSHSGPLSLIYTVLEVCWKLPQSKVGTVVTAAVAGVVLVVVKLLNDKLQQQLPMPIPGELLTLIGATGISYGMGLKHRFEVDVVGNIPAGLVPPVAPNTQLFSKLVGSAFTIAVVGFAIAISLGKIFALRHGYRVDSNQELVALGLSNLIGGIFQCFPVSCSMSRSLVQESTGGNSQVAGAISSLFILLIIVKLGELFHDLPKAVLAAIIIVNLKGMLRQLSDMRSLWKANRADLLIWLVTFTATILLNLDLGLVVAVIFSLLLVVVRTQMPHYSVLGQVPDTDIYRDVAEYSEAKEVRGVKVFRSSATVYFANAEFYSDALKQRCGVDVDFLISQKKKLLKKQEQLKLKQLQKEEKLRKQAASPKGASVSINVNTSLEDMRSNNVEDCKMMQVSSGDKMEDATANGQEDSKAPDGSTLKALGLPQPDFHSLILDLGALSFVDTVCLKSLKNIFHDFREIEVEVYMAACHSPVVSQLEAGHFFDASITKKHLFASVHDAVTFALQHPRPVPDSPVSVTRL

effect on 5-HT2A activity (human 5-HT2A): not affected
effect on tracheal smooth muscle (tracheal smooth muscle): did not affect
IC50 (SLC26A6): > 100 µM
SMILES: CC(C)(C)c1ccc(C2=NC(=Cc3cccs3)C(=O)O2)cc1 [F56, 2-(4-(tert-butyl)phenyl)-4-(thiophen-2-ylmethylene)oxazol-5(4H)-one]
mRNA expression level of Duox2 (Duox2 mRNA): did not change

Reference: US12691101B2, “Compound and method for preventing or treating of respiratory diseases comprising the same as an active ingredient” (YONSEI UNIVERSITY, UNIVERSITY - INDUSTRY FOUNDATION (UIF), priority 2019, dated 2026)
